Patent US20200009088A1, “COMPOSITIONS AND METHODS FOR TREATING ANDROGEN-INDEPENDENT CANCER” (The Regents of the University of California, priority 2017, published 2020)
“Also recorded” adds a separate entry of the source.

Legend:
wild-type AR = molecular target: T1, wild-type AR (Homo sapiens, UniProt P10275); test: AR transactivation luciferase assay in HEK 293 cells, wild-type AR; format: cell-based; conditions: luciferase reporter, FIG. 5A
T1 construct: expressed in transfected cells; host or cells: HEK 293
Protocol: (§1) HEK 293 cells were transiently transfected with expression vectors encoding the corresponding mutant AR and an androgen-responsive luciferase reporter gene construct. […] Luciferase activity was then determined.

AR-V7 [1] = molecular target: T2, AR-V7 (Homo sapiens, UniProt P10275); test: AR transactivation luciferase assay in HEK 293 cells, AR-V7; format: cell-based; conditions: luciferase reporter, FIG. 5B
T2 sequence (P10275 1-644 isoform P10275-3): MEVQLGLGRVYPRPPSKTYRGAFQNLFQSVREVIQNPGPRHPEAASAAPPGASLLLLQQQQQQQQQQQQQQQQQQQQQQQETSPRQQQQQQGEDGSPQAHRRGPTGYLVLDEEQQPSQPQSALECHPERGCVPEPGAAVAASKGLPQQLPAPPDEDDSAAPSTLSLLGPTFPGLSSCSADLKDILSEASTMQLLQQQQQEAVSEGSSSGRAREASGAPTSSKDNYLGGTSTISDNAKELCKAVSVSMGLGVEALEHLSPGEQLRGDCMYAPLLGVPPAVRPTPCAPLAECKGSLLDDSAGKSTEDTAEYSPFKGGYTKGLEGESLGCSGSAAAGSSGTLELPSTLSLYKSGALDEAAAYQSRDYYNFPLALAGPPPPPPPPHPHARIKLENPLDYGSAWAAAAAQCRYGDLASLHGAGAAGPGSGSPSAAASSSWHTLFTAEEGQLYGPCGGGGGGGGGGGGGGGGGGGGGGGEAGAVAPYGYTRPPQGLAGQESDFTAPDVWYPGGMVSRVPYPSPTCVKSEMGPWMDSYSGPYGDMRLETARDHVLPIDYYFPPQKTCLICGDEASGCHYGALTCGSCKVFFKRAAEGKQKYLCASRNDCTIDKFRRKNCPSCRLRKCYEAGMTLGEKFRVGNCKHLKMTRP
Protocol: as §1

T878A AR mutant = molecular target: T3, T878A AR mutant (Homo sapiens, UniProt P10275, T878A); test: AR transactivation luciferase assay in HEK 293 cells, T878A; format: cell-based; conditions: luciferase reporter, FIG. 5C
T3 construct: expressed in transfected cells; host or cells: HEK 293
Protocol: as §1

K581R AR mutant = molecular target: T4, K581R AR mutant (Homo sapiens, UniProt P10275, K581R); test: AR transactivation luciferase assay in HEK 293 cells, K581R; format: cell-based; conditions: luciferase reporter, FIG. 5D
T4 construct: expressed in transfected cells; host or cells: HEK 293
Protocol: as §1

V716M AR mutant = molecular target: T5, V716M AR mutant (Homo sapiens, UniProt P10275, V716M); test: AR transactivation luciferase assay in HEK 293 cells, V716M; format: cell-based; conditions: luciferase reporter, FIG. 5E
T5 construct: expressed in transfected cells; host or cells: HEK 293
Protocol: as §1

L702H AR mutant = molecular target: T6, L702H AR mutant (Homo sapiens, UniProt P10275, L702H); test: AR transactivation luciferase assay in HEK 293 cells, L702H; format: cell-based; conditions: luciferase reporter, FIG. 5F
T6 construct: expressed in transfected cells; host or cells: HEK 293
Protocol: as §1

C4-2BMDVR cells = test: ELISA cell death (apoptosis) assay; format: cell-based; conditions: FIG. 8; for cell apoptosis: compound alone, analogs compared with niclosamide
Protocol: To further examine the anti-cancer effects of these compounds, an ELISA cell death assay was performed.

[2] = system: CWR22Rv1 tumor xenografts; test: CWR22Rv1 tumor xenograft growth in vivo
Protocol: (§2) Tumor volume, tumor weight, and body weight were measured. Protein lysates were isolated from the tumors and analyzed for AR and AR-V7 expression by Western blot. […] “AR-Variants” represents a combination of all forms of AR. * denotes p<0.05.
(§3) Protein lysates were isolated and analyzed for AR and AR-V7 expression by Western blot.

AR = test: Western blot of AR in CWR22Rv1 xenograft tumor lysates; format: in vivo; conditions: CWR22Rv1 xenograft lysates vs controls, FIG. 13D
Protocol: as §2, §3

AR-V12 = molecular target: T7, AR-V12 (Homo sapiens, UniProt P10275); test: PSA-luc assay in C4-2B cells, AR-V12; format: cell-based; conditions: FBS, 1 μM overnight, FIG. 14F
T7 construct: expressed in transfected cells; host or cells: C4-2B
From the text: C4-2B cells were cotransfected with pcDNA, with or without AR-V1, AR-V3, AR-V7, AR-V9 or AR-V12, and with PSA-E/P-luciferase plasmids in FBS condition.

AR variants = test: AR variant protein degradation (cycloheximide, MG132, ubiquitin IP) in C4-2B MDVR cells; format: cell-based; conditions: FIG. 16
Protocol: “AR-Variants” represents a combination of all forms of AR.
To determine if the small molecule modulators affect AR-V7 protein expression via protein degradation, CWR22Rv1 and C4-2B MDVR cells were treated with cycloheximide (CHX) and the half-life of AR-V7 protein was measured.
After 0, 2, 4, and 8 hours, whole cell lysate was collected and subjected to Western blot. Half-life of AR-V7 was then calculated.
Whole cell lysate was subsequently collected and subjected to Western blot.
Whole cell lysate was immunoprecipitated with an AR antibody and blot with ubiquitin and AR antibodies.

LuCaP 35CR PDX xenograft = test: LuCaP 35CR PDX tumor model, oral administration; format: in vivo, mice
From the text: For the data shown in FIG. 19A, a LuCaP 35CR PDX model was established in male castrated SCID mice. […] Tumor and body weights are shown in FIGS. 19B and 19C, respectively.

MCF-7 cells = test: Breast cancer cell growth, MCF-7; format: cell-based; conditions: three days, FIG. 20B
CWR22Rv1 cells = test: Cell growth assay (cell numbers), CWR22Rv1; format: cell-based; conditions: for cell proliferation, combination with enzalutamide (MDV): CWR22Rv1, 0.5 μM + enzalutamide, 48 hours, FIG. 7A; for cell growth: CWR22Rv1, 48 hours, increasing doses of niclosamide/analogs, FIG. 6
AR-V7 [3] = molecular target: T2, AR-V7; test: Western blot of AR-V7 in CWR22Rv1 xenograft tumor lysates; format: in vivo; set-up: endogenous in cells; host or cells: CWR22Rv1 prostate cancer cells (also grown as xenograft tumours); conditions: CWR22Rv1 xenograft lysates vs controls, FIG. 13D
Protocol: as §2, §3

With O=C(Nc1ccc(C(F)(F)F)cc1Cl)c1cc(Cl)ccc1O [Compound 7] the “wild-type AR transactivation” value (wild-type AR) was “blocked”, the AR-V7 transactivation (AR-V7 [1]) was “significantly blocked” and the “T878A mutant AR transactivation” value (T878A AR mutant) was “significantly blocked”. The “K581R mutant AR transactivation” value (K581R AR mutant) was “significantly blocked”, the “V716M mutant AR transactivation” value (V716M AR mutant) was “significantly blocked” and the “L702H mutant AR transactivation” value (L702H AR mutant) was “significantly blocked”. The cell apoptosis (C4-2BMDVR cells) was “further enhanced”, the “apoptotic cell death, combination with enzalutamide (MDV)” value (C4-2BMDVR cells) was “further increased” and the body weight ([2]; FIG. 13B) was “without inhibition of body weight”. The tumor growth ([2]; FIGS. 13A-13C) was “significantly inhibited”, the “AR protein expression in tumors” value (AR) was “significantly inhibited” and the “AR-V12-mediated PSA-luc activity” value (AR-V12) was “inhibited”. The “AR variant degradation via the proteasome-ubiquitination system” value (AR variants) was “degraded”, the “serum PSA levels compared with niclosamide” value (LuCaP 35CR PDX xenograft; both p.o. 150 mg/kg) was “to a greater extent than niclosamide” and the “anti-tumor activity (tumor volume) compared with niclosamide” value (LuCaP 35CR PDX xenograft; both p.o. 150 mg/kg, 150 mg/kg) was “to a greater extent than niclosamide; also recorded: better anti-tumor activity than niclosamide”. For the same molecule, the tumor growth (LuCaP 35CR PDX xenograft; castrated SCID mice, p.o. 150 mg/kg, 4 weeks, FIG. 19, 150 mg/kg) was “significantly inhibited; also recorded: suppressed”, the body weight (LuCaP 35CR PDX xenograft; castrated SCID mice, p.o. 150 mg/kg, 4 weeks, FIG. 19C) was “without inhibition of body weight” and the “PSA protein expression in mouse sera” value (LuCaP 35CR PDX xenograft; p.o. 150 mg/kg, 4 weeks, FIG. 19D) was “inhibited”. The “breast cancer cell growth” value (MCF-7 cells) was “inhibited”, the “cell proliferation, combination with enzalutamide (MDV)” value (CWR22Rv1 cells) was “further inhibited” and the cell growth (CWR22Rv1 cells) was “able to inhibit cell growth in a dose-dependent manner”. The “AR-V7 protein expression in tumors” value (AR-V7 [3]) was “significantly inhibited”.
With C=CC(=O)Oc1ccc(Cl)cc1C(=O)Nc1ccc([N+](=O)[O-])cc1Cl [Compound 31] the “wild-type AR transactivation” value (wild-type AR) was “blocked”, the AR-V7 transactivation (AR-V7 [1]) was “significantly blocked” and the “T878A mutant AR transactivation” value (T878A AR mutant) was “significantly blocked”. For the same molecule, the “K581R mutant AR transactivation” value (K581R AR mutant) was “significantly blocked”, the “V716M mutant AR transactivation” value (V716M AR mutant) was “significantly blocked” and the “L702H mutant AR transactivation” value (L702H AR mutant) was “significantly blocked”. For the same molecule, the cell apoptosis (C4-2BMDVR cells) was “further enhanced”, the “apoptotic cell death, combination with enzalutamide (MDV)” value (C4-2BMDVR cells) was “further increased” and the “AR-V12-mediated PSA-luc activity” value (AR-V12) was “inhibited”. The “AR variant degradation via the proteasome-ubiquitination system” value (AR variants) was “degraded”, the “breast cancer cell growth” value (MCF-7 cells) was “inhibited” and the “cell proliferation, combination with enzalutamide (MDV)” value (CWR22Rv1 cells) was “further inhibited”. For the same molecule, the cell growth (CWR22Rv1 cells) was “able to inhibit cell growth in a dose-dependent manner”.
